# Measured values taken from PubChem BioAssay AID1963828 (Molecular Pharmacology Branch, DTP, NCI, 2024).
# System: 991263-137-R1-J2-PDC complex spheroid viability
# Test: Anticancer human tumor 991263-137-R1-J2-PDC patient-derived colon adenocarcinoma cell line growth inhibition [POLQ]
# Conditions: for IC50: curve of first compound; for viability, T/C: stronger effect = lower value
# In short: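 Growth inhibition in 3D: complex spheroids (tumor PDC, HUVEC, MSC) treated with POLQ inhibitor combinations; where Cmax unknown, highest tested concentration 10 microM, except SN-38 at 1 microM.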
# [1] = second compound 0.0316 µM, first compound 0.0316 µM
# [2] = second compound 0.0316 µM, first compound 0.1 µM
# [3] = second compound 0.1 µM, first compound 0.0316 µM
# [4] = second compound 0.1 µM, first compound 0.1 µM
# [5] = second compound 0.316 µM, first compound 0.0316 µM
# [6] = second compound 0.316 µM, first compound 0.1 µM
# [7] = second compound 1 µM, first compound 0.0316 µM
# [8] = second compound 1 µM, first compound 0.1 µM
# [9] = second compound 3.16 µM, first compound 0.0316 µM
# [10] = second compound 3.16 µM, first compound 0.1 µM
# [11] = second compound 10 µM, first compound 0.0316 µM
# [12] = second compound 10 µM, first compound 0.1 µM
# 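Further: spheroids exposed to compounds for 7 days before readout.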
# 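Wherever viability, T/C is given: 100% = DMSO vehicle control viability.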
compound,measurement,setting,value
CNCc1ccc(-c2[nH]c3cc(F)cc4c3c2CCNC4=O)cc1 + Cc1cccc(N(C)C(=O)C2C(O)CCN2c2nc(C)cc(C(F)(F)F)c2C#N)c1,IC50,second compound 0.0316 µM,> 10 µM
same,IC50,second compound 0.1 µM,> 10 µM
same,IC50,second compound 0.316 µM,> 10 µM
same,IC50,second compound 1 µM,> 10 µM
same,IC50,second compound 3.16 µM,> 10 µM
same,IC50,second compound 10 µM,> 10 µM
same,"viability, T/C",[1],107%
same,"viability, T/C",[2],103%
same,"viability, T/C","second compound 0.0316 µM, first compound 0.316 µM",118%
same,"viability, T/C","second compound 0.0316 µM, first compound 1 µM",93.4%
same,"viability, T/C","second compound 0.0316 µM, first compound 3.16 µM",86.2%
same,"viability, T/C","second compound 0.0316 µM, first compound 10 µM",106%
same,"viability, T/C",[3],110%
same,"viability, T/C",[4],107%
same,"viability, T/C","second compound 0.1 µM, first compound 0.316 µM",101%
same,"viability, T/C","second compound 0.1 µM, first compound 1 µM",107%
same,"viability, T/C","second compound 0.1 µM, first compound 3.16 µM",105%
same,"viability, T/C","second compound 0.1 µM, first compound 10 µM",99.4%
same,"viability, T/C",[5],108%
same,"viability, T/C",[6],120%
same,"viability, T/C","second compound 0.316 µM, first compound 0.316 µM",77.2%
same,"viability, T/C","second compound 0.316 µM, first compound 1 µM",112%
same,"viability, T/C","second compound 0.316 µM, first compound 3.16 µM",110%
same,"viability, T/C","second compound 0.316 µM, first compound 10 µM",126%
same,"viability, T/C",[7],115%
same,"viability, T/C",[8],102%
same,"viability, T/C","second compound 1 µM, first compound 0.316 µM",102%
same,"viability, T/C","second compound 1 µM, first compound 1 µM",113%
same,"viability, T/C","second compound 1 µM, first compound 3.16 µM",127%
same,"viability, T/C","second compound 1 µM, first compound 10 µM",94.3%
same,"viability, T/C",[9],112%
same,"viability, T/C",[10],101%
same,"viability, T/C","second compound 3.16 µM, first compound 0.316 µM",107%
same,"viability, T/C","second compound 3.16 µM, first compound 1 µM",108%
same,"viability, T/C","second compound 3.16 µM, first compound 3.16 µM",110%
same,"viability, T/C","second compound 3.16 µM, first compound 10 µM",119%
same,"viability, T/C",[11],107%
same,"viability, T/C",[12],114%
same,"viability, T/C","second compound 10 µM, first compound 0.316 µM",107%
same,"viability, T/C","second compound 10 µM, first compound 1 µM",114%
same,"viability, T/C","second compound 10 µM, first compound 3.16 µM",123%
same,"viability, T/C","second compound 10 µM, first compound 10 µM",94.2%
Cn1ncnc1[C@H]1c2n[nH]c(=O)c3cc(F)cc(c23)N[C@@H]1c1ccc(F)cc1 + Cc1cccc(N(C)C(=O)C2C(O)CCN2c2nc(C)cc(C(F)(F)F)c2C#N)c1,IC50,second compound 0.0316 µM,> 0.1 µM
same,IC50,second compound 0.1 µM,> 0.1 µM
same,IC50,second compound 0.316 µM,> 0.1 µM
same,IC50,second compound 1 µM,> 0.1 µM
same,IC50,second compound 3.16 µM,> 0.1 µM
same,IC50,second compound 10 µM,> 0.1 µM
same,"viability, T/C","second compound 0.0316 µM, first compound 0.000316 µM",84.3%
same,"viability, T/C","second compound 0.0316 µM, first compound 0.001 µM",112%
same,"viability, T/C","second compound 0.0316 µM, first compound 0.00316 µM",123%
same,"viability, T/C","second compound 0.0316 µM, first compound 0.01 µM",93.3%
same,"viability, T/C",[1],124%
same,"viability, T/C",[2],112%
same,"viability, T/C","second compound 0.1 µM, first compound 0.000316 µM",105%
same,"viability, T/C","second compound 0.1 µM, first compound 0.001 µM",130%
same,"viability, T/C","second compound 0.1 µM, first compound 0.00316 µM",98.4%
same,"viability, T/C","second compound 0.1 µM, first compound 0.01 µM",83.8%
same,"viability, T/C",[3],91.8%
same,"viability, T/C",[4],86.9%
same,"viability, T/C","second compound 0.316 µM, first compound 0.000316 µM",97.9%
same,"viability, T/C","second compound 0.316 µM, first compound 0.001 µM",128%
same,"viability, T/C","second compound 0.316 µM, first compound 0.00316 µM",101%
same,"viability, T/C","second compound 0.316 µM, first compound 0.01 µM",92.7%
same,"viability, T/C",[5],110%
same,"viability, T/C",[6],99.4%
same,"viability, T/C","second compound 1 µM, first compound 0.000316 µM",92.1%
same,"viability, T/C","second compound 1 µM, first compound 0.001 µM",110%
same,"viability, T/C","second compound 1 µM, first compound 0.00316 µM",101%
same,"viability, T/C","second compound 1 µM, first compound 0.01 µM",104%
same,"viability, T/C",[7],99.7%
same,"viability, T/C",[8],115%
same,"viability, T/C","second compound 3.16 µM, first compound 0.000316 µM",103%
same,"viability, T/C","second compound 3.16 µM, first compound 0.001 µM",113%
same,"viability, T/C","second compound 3.16 µM, first compound 0.00316 µM",106%
same,"viability, T/C","second compound 3.16 µM, first compound 0.01 µM",78.5%
same,"viability, T/C",[9],91.7%
same,"viability, T/C",[10],106%
same,"viability, T/C","second compound 10 µM, first compound 0.000316 µM",105%
same,"viability, T/C","second compound 10 µM, first compound 0.001 µM",114%
same,"viability, T/C","second compound 10 µM, first compound 0.00316 µM",92.9%
same,"viability, T/C","second compound 10 µM, first compound 0.01 µM",74.8%
same,"viability, T/C",[11],106%
same,"viability, T/C",[12],92.5%
